{"source": "ChEMBL document CHEMBL1641549", "about": "“Inhibitory effects of hybrid liposomes on the growth of synoviocyte causing rheumatoid arthritis” (2011)", "key": {"Homo sapiens [1]": {"species_on_record": "Homo sapiens", "assay": "Induction of apoptosis in HFLS isolated from rheumatoid arthritis patients by TUNEL assay", "assay_type": "functional"}, "[2]": {"assay": "Induction of apoptosis in HFLS isolated from rheumatoid arthritis patients after 24 hrs using propidium iodide staining by flow cytometry relative to DNA content", "assay_type": "functional, Homo sapiens"}, "Homo sapiens [3]": {"species_on_record": "Homo sapiens", "assay": "Growth inhibition of HFLS isolated from rheumatoid arthritis patients after 48 hrs by WST-1 assay", "assay_type": "functional"}, "Mus musculus": {"system": "Mus musculus", "assay": "Antiarthritic activity in SKG mouse expressing human rheumatoid arthritis invasion of inflammatory cells assessed as reduction of laminarin-induced joint swelling at 135 mg/kg, iv administered 14 days after laminarin challenge every 2 days for 36 weeks", "assay_type": "functional, organism-based", "set-up": "dose 135 mg/kg"}}, "note": "Active and inactive are the calls of the source. No cut-off for these calls is given here."}
{"compound": "CCCCCCCCCCCCOCCOCCOCCOCCOCCOCCOCCOCCOCCOCCOCCOCCOCCOCCOCCOCCOCCOCCOCCOCCOCCO", "values": [{"measurement": "Activity", "setting": "Homo sapiens [1]", "value": "Active"}, {"measurement": "Activity", "setting": "[2]", "value": 20.9, "unit": "%"}, {"measurement": "growth inhibition (GI)", "setting": "Homo sapiens [3]", "value": "Active"}]}
{"compound": "CCCCCCCCCCCCOCCOCCOCCOCCOCCOCCOCCOCCOCCOCCOCCOCCOCCOCCOCCOCCOCCOCCOCCOCCOCCOCCOCCOCCOCCO", "values": [{"measurement": "Activity", "setting": "Homo sapiens [1]", "value": "Active"}, {"measurement": "Activity", "setting": "[2]", "value": 21.2, "unit": "%"}, {"measurement": "growth inhibition (GI)", "setting": "Homo sapiens [3]", "value": "Active"}]}
{"compound": "CCCCCCCCCCCCOCCOCCOCCOCCOCCOCCOCCOCCOCCOCCOCCOCCOCCOCCOCCOCCOCCOCCOCCOCCOCCOCCOCCO", "values": [{"measurement": "Activity", "setting": "Homo sapiens [1]", "value": "Active"}, {"measurement": "Activity", "setting": "Mus musculus", "value": "Active"}, {"measurement": "Activity", "setting": "[2]", "value": 24.8, "unit": "%"}, {"measurement": "growth inhibition (GI)", "setting": "Homo sapiens [3]", "value": "Active"}]}
